Measured values taken from US12187715B2, “Small molecule activators of Tie-2” (EyePoint Pharmaceuticals, Inc., priority 2019, dated 2025).

System: phospho-Akt1 (pAkt)
Test: Phospho-Akt activation assay in human umbilical vein endothelial cells (Western blot)
Type: cell-based
Conditions: for Relative potencies for activation of pAkt: HUVECs, 3, 10 and 30 μM
Method: The ability of the small molecule analogues as shown in EXAMPLES 1-3 to stimulate production of phospho-Akt1 (pAkt) was tested. Akt plays a critical role in controlling cell survival and apoptosis, and Akt phosphorylation is increased by the activation of Tie-2. Akt activation can be detected by an antibody that recognizes phosphorylation on the serine 473 residue on Akt.
HUVECs were seeded at 500,000 cells/mL in chemically-defined basal media, and supplemented with distinct growth factors (EGM-2). The following growth factors were required for survival and normal phenotypic expression of endothelial characteristics: fetal bovine serum 2%, hydrocortisone, human fibroblast growth factor-B, vascular endothelial growth factor, recombinant insulin growth factor R3, ascorbic acid, human epidermal growth factor, gentamicin sulfate, amphotericin B, and heparin. Cells were derived from one donor, cultivated in 10 cm dishes, and expanded upon reaching 90% confluence. After three passages, the cells were expanded and ready for testing.
The cells were seeded at 25,000 cells/mL in 6-well plates, and covered with 2 mL of complete media. The cells were fed on day 2 of culture with 2 mL of fresh EGM-2 media. 72 hours after plating, the cells were serum starved by rinsing twice with 2 mL of sterile phosphate buffered saline, and then placed at 37° C. for 3 hours in the presence of basal EGM-2 media (1.5 mL/well without growth factors). The serum starvation allowed the cells to become quiescent.
Compounds 2-4 were dissolved in distilled deionized water at the following concentrations: • Compound 2 (Molecular weight: 622.7): 31 mg/ml. • Compound 3 (Molecular weight: 622.7): 26 mg/ml. • Compound 4 (Molecular weight: 636.7): 32 mg/ml.
All compounds were stored at 4° C. […] Stock concentrations of the above molecules were made at a final working concentration of 1 mM. Specific microliter volumes of the working concentration were added to each 6 well plate at the following concentrations: 3, 10, and 30 micromolar (μM). Cells were treated for 30 minutes.
10× cell lysis buffer was diluted fresh with dH2O. The 1× cell lysis buffer contained: 20 mM Tris-HCl (pH 7.5), 150 mM NaCl, 1 mM Na2EDTA, 1 mM EGTA, 1% Triton, 2.5 mM sodium pyrophosphate, 1 mM β-glycerophosphate, 1 mM Na3VO4, 1 μg/ml leupeptin, and 1 mM PMSF. Immediately before use, 1 mM PMSF was prepared by diluting from a stock of 1 M PMSF made up in DMSO. In addition, a 1× concentration of a Halt protease & phosphatase inhibitor cocktail was included. At the end of the 30 minute treatment, the media was discarded from the cell culture wells by shaking out, and the remaining media was aspirated off the wells. Ice-cold lysis buffer was added at 140 μL/well, and the culture was placed on ice or in a cold room for 30 minutes while rocking. Cell lysates were collected using a cell scraper, placed in microfuge tubes, and stored at −80° C. The levels of protein were quantitated using a microtiter plate BCA protein assay.
2× Laemmli sample buffer was added in equal volume to the […] cell lysis buffer, which contained the lysed endothelial cells. The solution was heated at 100° C. for 5 minutes and then sonicated for 10 seconds. After sonication, the lysates were spun by centrifuge at 4° C. for 5 minutes at 17,000 rpm. 70-100 μg of protein calculated from BCA assay prior to addition of 2× Laemmli sample were added per well of an 8% polyacrylamide gel.
Electrophoresis was performed at 150 volts for approximately 90 minutes at room temperature with 1× Laemmli running buffer. The proteins from the gel were transferred to nitrocellulose at 100 volts for 45 minutes on ice.
The nitrocellulose membranes were removed quickly without drying and placed in phosphate buffered saline (pH 7.3) with 1% nonfat dried milk. The membranes were blocked in the milk solution while rocking for 2 hours at room temperature or overnight at 4° C. […]

SMILES	Relative potencies for activation of pAkt	pAkt signal above control (HUVECs, 30 μM, 30 minutes treatment) [%]	Levels of pAkt (in words) (HUVECs, sets statement at 30 μM)
COC(=O)N(C)[C@@H](Cc1ccccc1)C(=O)N(C)[C@@H](Cc1ccc(NS(=O)(=O)[O-])cc1)c1csc(-c2cccs2)n1.[Na+] [Compound 4, sodium (4-{(S)-2-{(S)-2-[(methoxycarbonyl)(methyl)amino]-N-methyl-3-phenylpropanamido}-2-[2-(thiophen-2-yl)thiazol-4-yl]ethyl}phenyl)sulfamate]	Compound 2>Compound 4>Compound 3		
COC(=O)N(C)[C@@H](Cc1ccccc1)C(=O)N[C@@H](Cc1ccc(NS(=O)(=O)[O-])cc1)c1csc(-c2cccs2)n1.[Na+] [Compound 2, sodium (4-{(S)-2-{(S)-2-[(methoxycarbonyl)(methyl)amino]-3-phenylpropanamido}-2-[2-(thiophen-2-yl)thiazol-4-yl]ethyl}phenyl)sulfamate]	Compound 2>Compound 4>Compound 3	300	Noticeable and dose-dependent
